The values below come from patent US6462055B2, “Alpha-methylbenzyl-containing thiourea inhibitors of herpes viruses containing a phenylenediamine group” (Wyeth, priority 1998, dated 2002).

Assay [1] deals with VZV strain Ellen. Put plainly: VZV Antiviral (ELISA) Assay in human foreskin fibroblast cells. Type of assay: cell-based, varicella-zoster virus. The settings on record: for inhibition at 10 µg/mL / IC50: Human alphaherpesvirus 3, Fibroblast; for inhibition at 10 µg/mL: read-out: % inhibition 10 ug/ml VZV, 10 ug/ml; for IC50: read-out: IC50 (ug/ml) VZV. The protocol: For the generation of stock VZV to be used in the assay, VZV strain Ellen (ATCC #VR-1367) is used to infect human foreskin fibroblast (HFF) cells at low multiplicity (less than 0.1) and incubated overnight at 37° C. in 5% CO2. After the overnight incubation, the mixture of uninfected and VZV-infected HFF infected cells are then harvested and added to each well of 96-well plates (3.5×10^4 cells in 100 μl DMEM supplemented with 2% FBS) which contain test compound or the reference standard drug control (in 100 μl DMEM supplemented with 2% FBS per well). These cells are incubated for three days at 37° C. in 5% CO2, then fixed for ELISA assay. The primary antibody is murine anti-VZV glycoprotein II monoclonal antibody (Applied Biosystems, Inc. #13-145-100) and the secondary antibody is goat anti-mouse IgG linked to β-galactosidase. Thus the extent of viral replication is determined by assessing β-galactosidase activity by quantifying the generation of the 4-methyl umbelliferone fluorescent cleavage product after addition of the methyl umbelliferyl-β-D-galactoside (Sigma #M1633) substrate on a microfluorimeter (365 nm for excitation and 450 nm for emission). Antiviral activity (IC50) of the test compound is determined by comparing the flourescence obtained in absence of compound to that obtained in the presence of compound.
On the technique in general: In an ELISA, binding on a coated surface is turned into a signal by an enzyme label.

In assay [2] the test system is HCMV recombinant mutant virus (RV145). Put plainly: microbe, parasite or virus in culture. The settings on record: for IC50: Human betaherpesvirus 5, read-out: IC50 ug/ml HCMV, HCMV. It counts as cell-based, human cytomegalovirus. The source says: Microtiter plate assay. Ninety-six well plate cultures of human foreskin fibroblasts are infected in the presence of inhibitor compound with a HCMV recombinant mutant virus whose genome contains the prokaryotic beta-glucuronidase gene (Jefferson, R. A., S. M. Burgess, and D. Hirsh. 1986. Beta-glucuronidase from Escherichia coli as a gene fusion marker. Proc. Natl. Acad. Sci. USA 83:8447-8451) whose expression is controlled by a viral promoter. An example of such a virus is RV145 (Jones, T. R., V. P. Muzithras, and Y. Gluzman. 1991. Replacement mutagenesis of the human cytomegalovirus genome: US10 and US11 gene products are nonessential. J. Virol. 65:5860-5872). Since it is under the control of a viral promoter, beta-glucuronidase expression is an indirect indicator of growth and replication of HCMV in this assay. At 96 hours post-infection, the infected cell lysates are prepared (using 50 mM sodium phosphate [pH7.0]containing 0.1% Triton X-100 and 0.1% sarkosyl) and assayed for beta-glucuronidase activity using a substrate for the enzyme which when cleaved yields either a product which can be measured […] in a spectrophotometer or fluorescently in a microfluorimeter. Examples of such substrates are p-nitrophenyl-beta-D-glucuronide and methylumbelliferylglucuronide, respectively. The presence of an antiviral compound is indicated by the reduced expression of the HCMV genome resident beta-glucuronidase gene, compared to the absence of inhibitor. […] Data from this assay generated using varying amounts of inhibitor compound is also used to estimate the IC50 of an inhibitor compound.

The test system of assay [3] is HSV-1. Put plainly: HSV Antiviral (ELISA) Assay in Vero cells. Type of assay: cell-based, herpes simplex virus type 1. The settings on record: HSV-1, Vero cells; for IC50: Human alphaherpesvirus 1, read-out: IC50 (ug/ml) HSV. The protocol:
Vero cells (ATCC #CCL-81) are plated on 96-well tissue culture plates at 3.5×10^4 cells per 100 μl tissue culture DMEM (Dulbeccos modified Eagle media) supplemented with 2% fetal bovine serum (FBS) in each well. After overnight incubation @ 37° C. (in 5% CO2) and 30 minutes prior to infection with HSV-1 (multiplicity of infection equal to 0.006), cells are either untreated, or treated with test compound (multiple concentrations) or reference standard drug control. After approximately 24 hours post-infection incubation @ 37° C. (in 5% CO2), cells are fixed for ELISA assay. The primary antibody is murine anti-HSV glycoprotein D monoclonal primary antibody and the secondary antibody is goat anti-mouse IgG linked to β-galactosidase. Thus the extent of viral replication is determined by assessing β-galactosidase activity by quantifying the generation of the 4-methyl umbelliferone fluorescent cleavage product after addition of the methyl umbelliferyl-β-D-galactoside (Sigma #M1633) substrate on a microfluorimeter (365 nm for excitation and 450 nm for emission). Antiviral activity (IC50) of the test compound is determined by comparing the flourescence obtained in absence of compound to that obtained in the presence of compound.

Each structure is given as a SMILES string. Values after ≈ are worked out from the molar mass of the structure shown. A value given as a limit tells only on which side of the number the result lay.

`COc1ccccc1C(=O)Nc1ccc(NC(=S)N[C@@H](C)c2ccc(Br)cc2)cc1` [Example 1104]: the “IC50 (ug/ml) VZV” value in assay [1] was determined as 0.09 µg/mL (≈ 0.186 µM). Moreover, the “IC50 ug/ml HCMV” value in assay [2] came out at 4.9 µg/mL (≈ 10.1 µM).
Turning to `Nc1cccc(NC(=S)Nc2ccc(NC(=O)c3ccccc3F)cc2)c1` [Example 434], in assay [1], the “IC50 (ug/ml) VZV” value is more than 10 µg/mL and the “% inhibition 10 ug/ml VZV” value came to 0%. Besides, in assay [2], the “IC50 ug/ml HCMV” value is 5 µg/mL (≈ 13.1 µM).
For `O=C(Nc1ccc(NC(=S)Nc2cccc(CO)c2)cc1)c1ccccc1F` [Example 476], in assay [1], the “IC50 (ug/ml) VZV” value was more than 10 µg/mL and the “% inhibition 10 ug/ml VZV” value is 21%. Besides, the “IC50 ug/ml HCMV” value in assay [2] was more than 10 µg/mL.
Turning to `CC(NC(=S)Nc1ccc(NC(=O)c2cccc(Cl)c2)cc1)c1ccc(F)cc1` (stereo not drawn) [Example 761], the “IC50 (ug/ml) VZV” value in assay [1] was more than 10 µg/mL. In addition, the “IC50 ug/ml HCMV” value in assay [2] was 1.5 µg/mL (≈ 3.51 µM).
With `O=C(Nc1ccc(NC(=S)Nc2ccc(Br)c(Cl)c2)cc1)c1ccccc1F` [Example 915, N-{4-[3-(4-Bromo-3-chloro-phenyl)-thioureido]-phenyl}-2-fluoro-benzamide], in assay [1], the inhibition at 10 µg/mL was 29% and the IC50 was more than 10 µg/mL. The IC50 in assay [2] is more than 10 µg/mL.
Turning to `Nc1ccc(C(F)(F)F)cc1NC(=S)Nc1ccc(NC(=O)c2ccccc2F)cc1` [Example 999, N-{4-[3-(2-Amino-5-trifluoromethyl-phenyl)-thioureido]-phenyl}-2-fluoro-benzamide], the values for the IC50 in assay [1] and in assay [2] were 9.4 µg/mL (≈ 21 µM) and 4 µg/mL (≈ 8.92 µM), respectively.
Turning to `CN1CCN(c2cc(NC(=S)Nc3ccc(NC(=O)c4ccccc4F)cc3)cc(C(F)(F)F)c2)CC1` [Example 569], the “IC50 (ug/ml) VZV” value in assay [1] was 3 µg/mL (≈ 5.64 µM). Moreover, the “IC50 ug/ml HCMV” value in assay [2] was more than 0.5 µg/mL.
For `CC(NC(=S)Nc1ccc(NC(=O)c2ccccc2C(F)(F)F)cc1)c1ccc(F)cc1` (stereo not drawn) [Example 992, N-(4-{3-[1-(4-Fluoro-phenyl)-ethyl]-thioureido}-phenyl)-2-trifluoromethyl-benzamide], the IC50 was found to be 1.2 µg/mL (≈ 2.6 µM) in assay [1] and 4 µg/mL (≈ 8.67 µM) in assay [2].
For the compound `NC(=O)c1cccc(NC(=S)Nc2ccc(NC(=O)c3ccccc3F)cc2)c1` [Example 952, N-[4-[[[[3-(Aminocarbonyl)phenyl]amino]thioxomethyl]amino]phenyl]-2-fluoro-benzamide], in assay [1], the inhibition at 10 µg/mL amounted to 22% and the IC50 was more than 10 µg/mL. Moreover, the IC50 in assay [2] is more than 10 µg/mL.
On to `O=C(Nc1ccc(NC(=S)Nc2cc(N3CCOCC3)cc(C(F)(F)F)c2)cc1)c1ccccc1F` [Example 568], for which, in assay [1], the “IC50 (ug/ml) VZV” value was determined as 2.3 µg/mL (≈ 4.44 µM). Moreover, the “IC50 ug/ml HCMV” value in assay [2] is more than 0.5 µg/mL.
On to `O=C(Nc1ccc(NC(=S)Nc2cccc(S(=O)(=O)CCO)c2)cc1)c1ccccc1F` [Example 969, 2-Fluoro-N-(4-{3-[3-(2-hydroxy-ethanesulfonyl)-phenyl]-thioureido}-phenyl)-benzamide], for which, in assay [1], the inhibition at 10 µg/mL is 19% and the IC50 is more than 10 µg/mL. In addition, the IC50 in assay [2] was more than 10 µg/mL.
As to `O=C(Nc1ccc(NC(=S)NCCOc2cccc(Cl)c2)cc1)c1ccccc1F` [Example 666], in assay [2], the “IC50 ug/ml HCMV” value is more than 0.5 µg/mL.
For the compound `CC(NC(=S)Nc1ccc(NC(=O)c2ccc(N(C)C)cc2)cc1)c1ccc(F)cc1` (stereo not drawn) [Example 765], in assay [2], the “IC50 ug/ml HCMV” value worked out at 2.3 µg/mL (≈ 5.27 µM).
`COc1ccc(C(=O)Nc2ccc(NC(=S)Nc3ccc(OC)c(Cl)c3)cc2)cc1` [Example 820, N-{4-[3-(3-Chloro-4-methoxy-phenyl)-thioureido]-phenyl}-4-methoxy-benzamide]: in assay [1], the inhibition at 10 µg/mL is 20% and the IC50 was more than 10 µg/mL. The IC50 in assay [3] was 4 µg/mL (≈ 9.05 µM).
Consider `C[C@@H](NC(=S)Nc1ccc(NC(=O)c2ccccc2F)cc1)c1ccccc1` [Example 1016, 2-Fluoro-N-{4-[3-((1R)-1-phenyl-ethyl)-thioureido]-phenyl}-benzamide], for which the results for the IC50 in assay [1] and in assay [3] were more than 7.5 µg/mL and more than 10 µg/mL, respectively.
As to `CCCOc1ccc(NC(=S)Nc2ccc(NC(=O)c3ccccc3F)cc2)cc1Cl` [Example 807], the “IC50 (ug/ml) VZV” value in assay [1] was found to be 0.9 µg/mL (≈ 1.97 µM). In addition, in assay [3], the “IC50 (ug/ml) HSV” value is more than 10 µg/mL.
For the compound `COc1cc(C)c(Cl)cc1NC(=S)Nc1ccc(NC(=O)c2ccccc2C)cc1` [Example 850, N-{4-[3-(5-Chloro-2-methoxy-4-methyl-phenyl)-thioureido]-phenyl}-2-methyl-benzamide], in assay [1], the inhibition at 10 µg/mL worked out at 28% and the IC50 was found to be 5 µg/mL (≈ 11.4 µM). The IC50 in assay [3] worked out at 0.09 µg/mL (≈ 0.205 µM).
The corresponding values for `COc1cccc(C(=O)Nc2ccc(NC(=S)Nc3cc(Cl)c(OC)c(Cl)c3)cc2)c1` [Example 875, N-{4-[3-(3,5-Dichloro-4-methoxy-phenyl)thioureido]-phenyl}-3-methoxy-benzamide] are 20%, more than 10 µg/mL and 6 µg/mL (≈ 12.6 µM).
With `CC(NC(=S)Nc1ccc(NC(=O)c2cc3ccccc3o2)cc1)c1ccc(Br)cc1` (stereo not drawn) [Example 982, Benzofuran-2-carboxylic acid (4-{3-[1-(4-bromo-phenyl)-ethyl]-thioureido}-phenyl)-amide], the IC50 in assay [1] is 0.1 µg/mL (≈ 0.202 µM); in assay [3] it was more than 10 µg/mL.
For `COc1c(Cl)cc(NC(=S)Nc2ccc(NC(=O)c3ccccc3F)cc2)cc1Cl` [Example 874, N-{4-[3-(3,5-Dichloro-4-methoxy-phenyl)-thioureido]-phenyl}-2-fluoro-benzamide], the inhibition at 10 µg/mL in assay [1] stood at 75%. For the same compound, the IC50 in assay [1] was found to be 3.5 µg/mL (≈ 7.54 µM); in assay [3], 5 µg/mL (≈ 10.8 µM).
As to `O=C(Nc1ccc(NC(=S)NCCOc2cc(Cl)cc(Cl)c2)cc1)c1ccccc1F` [Example 664], the “IC50 ug/ml HCMV” value in assay [2] is more than 0.5 µg/mL.
For `CC(NC(=S)Nc1ccc(NC(=O)c2cccc3cccnc23)cc1)c1ccc(F)cc1` (stereo not drawn) [Example 991, Quinoline-8-carboxylic acid (4-{3-[1-(4-fluoro-phenyl)-ethyl]-thioureido}-phenyl)-amide], the values for the IC50 in assay [1] and in assay [3] were 0.1 µg/mL (≈ 0.225 µM) and more than 10 µg/mL, respectively.
Consider `Cc1ccc([C@H](C)NC(=S)Nc2ccc(NC(=O)c3ccccc3F)cc2)cc1` [Example 1011, 2-Fluoro-N-{4-[3-((1S)-1-p-tolyl-ethyl)-thioureido]-phenyl}-benzamide], for which the IC50 is 0.55 µg/mL (≈ 1.35 µM) in assay [1] and more than 10 µg/mL in assay [3].
On to `CC(O)c1ccc(NC(=S)Nc2ccc(NC(=O)c3ccccc3F)cc2)cc1Cl` (stereo not drawn) [Example 865, N-(4-{3-[3-Chloro-4-(1-hydroxy-ethyl)-phenyl]-thioureido}-phenyl)-2-fluoro-benzamide], for which, in assay [1], the inhibition at 10 µg/mL was found to be 52% and the IC50 was more than 10 µg/mL. In assay [3], the IC50 is 4 µg/mL (≈ 9.01 µM).
On to `COc1c(Cl)cc(NC(=S)Nc2ccc(NC(=O)c3cccc(F)c3)cc2)cc1Cl` [Example 872, N-{4-[3-(3,5-Dichloro-4-methoxy-phenyl)-thioureido]-phenyl}-3-fluoro-benzamide], for which, in assay [1], the inhibition at 10 µg/mL came out at 28% and the IC50 is more than 10 µg/mL. Further, the IC50 in assay [3] is 4 µg/mL (≈ 8.61 µM).
With `O=C(Nc1ccc(NC(=S)Nc2cccc(Cl)c2Cl)cc1)c1ccccc1F` [Example 927, N-{4-[3-(2,3-Dichloro-phenyl)-thioureido]-phenyl}-2-fluoro-benzamide], the inhibition at 10 µg/mL in assay [1] was 1%. Moreover, the IC50 in assay [3] is 5 µg/mL (≈ 11.5 µM).
